Data: publication PMC7997579, “Synthetic Lethality in Pancreatic Cancer: Discovery of a New RAD51-BRCA2 Small Molecule Disruptor That Inhibits Homologous Recombination and Synergizes with Olaparib” (Journal of Medicinal Chemistry, 2020)
Values after ≈ are worked out from the molar mass of the structure shown. Like-named read-outs stand apart in the source and are kept apart here.

Tests used:
[1] = system: homologous recombination in BxPC3 cells; assay: Homologous recombination assay (two-plasmid recombination, real-time PCR); assay type: cell-based, human; conditions: Homo sapiens, BXPC-3
BxPC3 cells [2] = assay: Cell viability assay (CellTiter-Glo), association with olaparib; assay type: cell-based, human
Source text: Our working hypothesis is that compounds disrupting RAD51-BRCA2 interaction should affect HR repair and increase the efficacy of PARPi in treating breast, ovarian, and pancreatic cancer. For its clinical relevance, pancreatic adenocarcinoma was selected as our final model for cell-based experiments, and BxPC3 cells were selected for a straightforward comparison with the previously reported triazole derivatives.[30],[31] BxPC3 is derived from a human adenocarcinoma that expresses fully functional BRCA2.[38] As shown in Table 2 and according to the rationale of our hypothesis, our preliminary screening consisted of verifying the efficacy of compounds in inhibiting cell HR and/or in increasing the antiproliferative effect of olaparib. […] HR activity was assessed by evaluating the recombination rate between two transfected plasmids, using a commercially available assay. […] As for the emissucinic acid-containing compounds (4d, 12d, 18d, 20d–23d, 30d, 31d), one of the reasons for their lower potency in cells might be the general poor permeability, likely related to the ionizable acid moiety. […] We then characterized 35d in additional biophysical and cell-based experiments.
(§1) Cell viability was assessed with the CellTiter-Glo luminescent cell viability assay from Promega. For this experiment, 1 × 10^4 cells in 200 μL of culture medium were seeded into each well of a 96-multiwell white body plate and allowed to adhere overnight. After 72 h incubation in the presence of olaparib (10 μM) and the RAD51-BRCA2 disruptors alone or in combination, the plate was allowed to equilibrate at room temperature for 30 min and the CellTiter-Glo reactive was directly added to each well. The plate was kept on a shaker for 10 min to induce cell lysis, and its luminescence was measured with a Fluoroskan Ascent FL reader (Labsystems).

RAD51 in BxPC-3 nuclei = assay: Immunofluorescence of RAD51 nuclear localization after cisplatin; assay type: cell-based, human; conditions: BxPC-3, 50 μM cisplatin in association with 20 μM 35d
Experimental: Immunofluorescence was used for studying RAD51 nuclear translocation and for evaluating DNA damage through the detection of γH2AX nuclear foci. To visualize RAD51 in cell nuclei, BxPC-3 cells were seeded on glass coverslips placed in a 6-well culture plate (2 × 10^5 cells/well) and allowed to adhere overnight. Cultures were then preincubated with 20 μM 35d for 1 h and subsequently exposed to 50 μM cisplatin for an additional 1.5 h. Medium was removed, and cells were maintained in the presence of 20 μM 35d for 4 h. After this time, cultures growing on coverslips were fixed in PBS containing 1% formalin for 20 min, permeabilized in 70% ethanol, air-dried, and washed twice with PBS. Samples were incubated in 10% bovine serum albumin (BSA) in PBS for 30 min at 37 °C and subsequently exposed to an anti-RAD51 mouse monoclonal antibody (Santa Cruz Biotechnology, 1:1000 in 5% BSA/PBS) overnight at 4 °C. After washing, coverslips were incubated with an anti-mouse FITC-conjugated secondary antibody (1:1000 in 1% BSA/PBS) for 1 h at 37 °C, washed, air-dried, and mounted with a solution of DAPI (2 μg/mL) and DABCO.

BxPC3 cells [3] = assay: Micronuclei visualization; assay type: cell-based, human; conditions: BxPC3, 72 h, 20 μM 35d + 10 μM olaparib vs single agents; p <0.01
Experimental: For micronuclei visualization, cells were grown on coverslips placed in a 6-multiwell plate (5 × 10^5 cells/well). After a 72 h treatment with olaparib (10 μM) or 35d (20 μM) given alone or in combination, wells were rapidly washed with PBS and then fixed for 10 min with cold methanol. Coverslips were then air-dried and mounted on glass slides using a solution of DAPI (5 μg/mL)/DABCO. Images were acquired on a Nikon fluorescent microscope equipped with filters for DAPI. […] The percentage of cells bearing micronuclei was estimated by two independent observers, by analyzing 100–250 cells for each treatment sample.

Capan-1 cells = assay: Cell viability assay (antiproliferative effect), association with olaparib; assay type: cell-based, human
Experimental: (§2) Finally, the antiproliferative effect of the 35d/olaparib combination was also studied on the HR-defective Capan-1 culture and on a non-neoplastic cell line derived from human kidney (HK-2). Moreover, to evaluate the antineoplastic potency of the 35d/olaparib association, we also calculated the combination index (CI) of the two compounds, using the procedure previously described[30],[31] (Figure 9).
as §1

HK-2 = assay: as above; assay type: cell-based, human; conditions: HK-2, 72 h, 10 μM olaparib; two-way ANOVA
Experimental: as §2, §1

[4] = Solubility (as observed in cell culture media / stated); assay type: physicochemical

CCC(=O)N1N=C(c2c(-c3ccccc3)c3cc(Cl)ccc3[nH]c2=O)CC1c1ccc(OC)cc1 (stereo not shown) [Compound 35d, 6-Chloro-3-(5-(4-methoxyphenyl)-1-propionyl-4,5-dihydro-1H-pyrazol-3-yl)-4-phenylquinolin-2(1H)-one]
inhibition at 10 µM ([1]; 10 μM, BxPC3, 5 h during plasmid transfection): ~10%
inhibition at 20 µM ([1]; 20 μM, BxPC3, 5 h during plasmid transfection): 54%
EC50 ([1]; BxPC3, 5 h, tested up to 40 μM, polynomial regression, read-out: EC50 (dose causing a 50% inhibition of HR)): 18.4 µM
combination index (CI) with olaparib (BxPC3 cells [2]; BxPC3, 10 μM 35d + 10 μM olaparib): ~1
olaparib association (BxPC3 cells [2]; BxPC3, at 15 μM): olaparib association = present at 15 μM
combination index (CI) with olaparib (BxPC3 cells [2]; BxPC-3, 20 μM 35d + 10 μM olaparib, CI < 0.8 = synergism): < 0.8
RAD51 nuclear foci in cisplatin-treated cells (RAD51 in BxPC-3 nuclei): significantly reduced
cells bearing micronuclei (BxPC3 cells [3]): markedly more frequent
antiproliferative effect of 35d/olaparib (Capan-1 cells; Capan-1, 72 h, 10 μM olaparib, two-way ANOVA): significantly increased antiproliferative effects
combination index (CI) with olaparib (Capan-1 cells; Capan-1, all tested doses of 35d + 10 μM olaparib): ~1
antiproliferative effect of 35d/olaparib vs olaparib (HK-2): no dose of 35d appeared to significantly increase
solubility ([4]; HR assay medium (RPMI, 0.6% DMSO), kinetic from dmso stock, read-out: upper limit in terms of solubility): 40 µM (≈ 19.4 µg/mL)
solubility ([4]; stated in conclusions): low solubility
